Experimental findings from ChEMBL document CHEMBL1221387, “Prenylflavonoids from Glycyrrhiza uralensis and their protein tyrosine phosphatase-1B inhibitory activities” (Bioorg Med Chem Lett, 2010) are described below.

pIC50: −log10 of the molar value.

The assay deals with T1, Tyrosine-protein phosphatase non-receptor type 1 (Homo sapiens, UniProt P18031).
T1 sequence (P18031 whole entry): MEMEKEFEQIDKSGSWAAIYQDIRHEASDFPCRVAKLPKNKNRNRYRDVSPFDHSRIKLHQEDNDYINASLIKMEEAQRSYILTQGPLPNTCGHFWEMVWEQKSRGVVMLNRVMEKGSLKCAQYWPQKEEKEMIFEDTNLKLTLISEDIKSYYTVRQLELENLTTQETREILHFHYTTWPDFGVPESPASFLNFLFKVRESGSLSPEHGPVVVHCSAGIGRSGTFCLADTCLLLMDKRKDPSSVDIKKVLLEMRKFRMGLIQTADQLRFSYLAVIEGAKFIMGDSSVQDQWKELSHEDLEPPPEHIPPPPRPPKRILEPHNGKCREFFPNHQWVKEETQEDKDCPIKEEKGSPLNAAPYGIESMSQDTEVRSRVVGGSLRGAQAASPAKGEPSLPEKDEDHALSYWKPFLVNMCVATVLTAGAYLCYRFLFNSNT
The assay is described as follows: Inhibition of human recombinant PTP1B assessed as p-nitorphenol production after 30 mins.
As usually defined, the pIC50 is the IC50 on a negative log10 scale, so that one unit is a factor of ten. Regarding `COc1cc(O)cc2occ(-c3cc(O)c(O)c(CC=C(C)C)c3)c(=O)c12` [GLISOFLAVONE], the negative-log IC50 (pIC50) is 4.55. As to `COc1c(CC=C(C)C)c(O)cc2oc(=O)c(-c3ccc(O)cc3O)cc12` [GLYCYCOUMARIN], the pIC50 was 3.74.

`CCCCCCCCCCCCCCCC(=O)C1=C(O)[C@@H](CO)OC1=O`: the pIC50 was 5.36. As for `CC(C)=CCc1cc2c(=O)cc(-c3ccc(O)cc3)oc2cc1O` [LICOFLAVANONE A], the negative-log IC50 (pIC50) is 4.26. As for `COc1c(CC=C(C)C)c(O)cc(O)c1-c1oc2cc(O)ccc2c1C` [GLYCYBENZOFURAN], the figure is 4.59; as for `CC(C)=CCc1cc(-c2coc3cc(O)cc(O)c3c2=O)cc(O)c1O` [GLYCYRRHISOFLAVONE], 4.23; as for `COc1c(CC=C(C)C)c(O)cc2oc(-c3ccc(O)cc3O)cc12` [LICOCOUMARONE], 4.15.
